Measured values: article PMC8296708, “The pan HDAC inhibitor Givinostat improves muscle function and histological parameters in two Duchenne muscular dystrophy murine models expressing different haplotypes of the LTBP4 gene” (Skeletal Muscle, 2021)

Columns and labels:
[1] = system: in vivo pulmonary fibrosis model; design: method as in McKinsey TA, unpublished results; conditions: administered with the diet; ref McKinsey TA, unpublished results; cited from earlier work
D2.B10 mice [2] = experiment: Centralized nuclei (%) in muscles of D2.B10 mice; type: in vivo, mouse (D2.B10-Dmd^mdx/J); conditions: Givinostat 37.5 mg/kg; for Nuclear centralization in TA: prednisone (vehicle 21.2 ± 1.0); for Nuclear centralization in GAS: prednisone (vehicle 25.1 ± 1.5)
Text: (§1) Tibialis anterior (TA), gastrocnemius (GAS), DIA, and heart were collected from mice maintained under isoflurane anesthesia and sacrificed by cervical dislocation. These muscles were collected from C57BL/10J wt and mdx (5 mice/group) at the end of treatments and from DBA/2J wt and D2.B10 mice (5 mice/group) at two different time points to be examined by a pathologist (for more details see Additional Table 1). Due to the results obtained by the functional tests, muscles from only some treatment groups were analyzed in both DMD models (see Additional Table 1). All the collected muscles were fixed in 10% buffered formalin solution (Bio-optica, Milan, Italy) at + 4 °C for at least 48 h. After fixation, muscular samples were transversely trimmed, caged, and paraffin embedded overnight with an Automated Vacuum Tissue Processor Floor (ETP, Histo-Line Laboratories) and included in paraffin blocks. Serial transverse cross-sections (4 μm thick) were cut with a microtome (Leica RM 2255), collected onto uncoated glass slides, and stained using a standard protocol for hematoxylin and eosin (Mayer hematoxylin & Aqueous G Eosin 1%, Bio-Optica) and Sirius Red staining (Direct Red 80, Sigma-Aldrich). For the image analysis and quantitation, hematoxylin and eosin- and Sirius Red-stained slides were examined with an Olympus BX51 light microscope. From each sample, 1 to 3 random microphotographs at the magnification of × 4 and × 10 (TA, GAS and heart) or × 20 (DIA) were collected using Image-Pro Plus system. The digital images were processed by a pathologist using ImageJ software (U.S. National Institutes of Health, Bethesda, MD, USA). To quantify CSA and centralized nuclei (%) on hematoxylin and eosin-stained sections, one hundred myofibers were manually measured for each muscle/mouse using a tablet pen (Wacom Intruos) and analyzed by the ImageJ software after a linear calibration of 150 μm. The fibrotic area, corresponding to the area stained in red, was compared to the total area of the tissue section, and the results were expressed as percentage fibrosis. The % of fibrosis of muscles in the different treatment groups was expressed by averaging the three values obtained from each muscle.

[3] = Body weight of D2.B10 mice; type: in vivo, mouse (D2.B10-Dmd^mdx/J)
Description: In the efficacy studies, Givinostat powder (ITF2357) was suspended in 0.5% methylcellulose (Sigma-Aldrich) and administered p.o. (by gavage) at the doses of 0.1, 0.3, 1, 5, 10, 25, and 37.5 mg/kg qdx5x15weeks (administration volume per mouse: 10 mL/kg) in mdx mice (see Additional Figure 1A). Vehicle-treated mdx mice received 0.5% methylcellulose suspension. Givinostat suspension was stored at + 4 °C, and it was freshly prepared every 7 days. Probably due to the impairment of their tongue and masticatory muscles, the oral gavage procedure turned out to be difficult to perform, and chronic treatment of D2.B10 mice by this route was considered to bear a high risk of damaging the esophagus. For this reason, Givinostat was administered in the drinking water. Givinostat was dissolved in filtered tap water and was administered in drinking water (throughout 24 h) for 105 days at the dose of 1, 5, 10, and 37.5 mg/kg/day, according to a daily estimate of water consumption of 4 ml/mouse/day. Water consumption was weekly monitored throughout the entire duration of the study weighing the bottle of each cage (maximum 4 mice per cage). Prednisone and Deflazacort powder (Sigma-Aldrich) was dissolved in 2% DMSO (Sigma-Aldrich) and diluted in sterile saline on injection days. Both drugs were administered weekly (for 15 weeks) by i.p. injection at the dose of 1 mg/kg in a volume of 10 mL/kg. […] All mice were monitored daily and tolerability was evaluated on the basis of BW and clinical signs.
In both efficacy studies, the effectiveness of treatments was evaluated every week by measuring the forelimb strength by a grip strength meter (Ugo Basile SRL, Italy). BW of mdx (see Additional Figure 2) and D2.B10 mice (see Additional Figure 3) was also measured in order to normalize the absolute grip strength of each mouse with respect to its BW. […] The highest recorded value of maximal normalized strength (FNmax) obtained for each mouse at all the time points (from T0 to T15) was used for further analysis.

D2.B10 mice [4] = experiment: Myofiber cross-sectional area (CSA) in D2.B10 mice; type: in vivo, mouse (D2.B10-Dmd^mdx/J); conditions: for TA CSA / GAS CSA: D2.B10 mice, Givinostat 37.5 mg/kg
Text: as §1
The deciles of the CSA of the animals treated with Givinostat at the different doses were plotted against the corresponding deciles of the vehicle-treated mice and a linear regression analysis was performed on natural [CSAtreated = b CSAcontrol + a] and log_transformed data [log(CSAtreated) = log(a) + b log(CSAcontrol)]. […] In case of untransformed data, this means that the effect of Givinostat treatment is additive and any decile of the CSAtreatment distribution may be derived from the control data summing up a constant quantity (S) to each fiber AREA of the control group (CSAtreated = CSAcontrol + S). In case of log_transformed data, the effect of Givinostat has to be considered as a multiplicative factor on any generic fiber of the muscle under evaluation, whose size, after the treatment, results K times larger in comparison to the control group value (CSAtreated […] = K × CSAcontrol, with K = 10^a). The S or K parameter values were then determined through an iterative estimation procedure, based on sum of squares (SSQ) minimization, directly comparing the CSA distribution observed in treated animals with that obtained summing up the S value or multiplying by K the CSA values of the control group.

[5] = T8, prednisone 1 mg/kg (vehicle 600)
[6] = T8, prednisone 1 mg/kg (vehicle 1050)
[7] = T16, prednisone 1 mg/kg (vehicle 300)

Row | SMILES | Activity in in vivo pulmonary fibrosis model [1] | Nuclear centralization in TA (D2.B10 mice [2]) | Nuclear centralization in GAS (D2.B10 mice [2]) | Body weight vs vehicle-treated mice ([3]; D2.B10 mice) | TA CSA (D2.B10 mice [4]; [5]) | GAS CSA (D2.B10 mice [4]; [6]) | GAS CSA (D2.B10 mice [4]; [7]) | TA CSA (D2.B10 mice [4]; [7]) | Body weight vs vehicle-treated mice ([3]; mouse, in vivo) | Effect of steroid on cross-sectional area and centralized nuclei (D2.B10 mice [4]; D2.B10 muscles, 1 mg/kg i.p. weekly)
1 | CCN(CC)Cc1ccc2cc(COC(=O)Nc3ccc(C(=O)NO)cc3)ccc2c1 [Givinostat] | inactive | 19.8 ± 2.4% | 22.4 ± 2.1% | no significant differences | 300 μm^2 | 600 μm^2 | 450 μm^2 | 300 μm^2 | – | –
2 | C[C@]12C=CC(=O)C=C1CC[C@@H]1[C@@H]2C(=O)C[C@@]2(C)[C@H]1CC[C@]2(O)C(=O)CO [prednisone] | – | 22.0 ± 2.4% | 21.6 ± 1.7% | – | 300 μm^2 | 600 μm^2 | 300 μm^2 | 300 μm^2 | no significant differences | unable to affect cross-sectional area or the number of centralized nuclei
